These results are taken from PMC4659430 (Journal of biomolecular screening, 2015).

Entries after “also recorded” stand apart in the source; their conditions may differ.

What all share (format): cell-based
Assay [1] deals with T1, human M4 (hM4) (Homo sapiens, UniProt P08173).
T1 sequence (P08173 1-479): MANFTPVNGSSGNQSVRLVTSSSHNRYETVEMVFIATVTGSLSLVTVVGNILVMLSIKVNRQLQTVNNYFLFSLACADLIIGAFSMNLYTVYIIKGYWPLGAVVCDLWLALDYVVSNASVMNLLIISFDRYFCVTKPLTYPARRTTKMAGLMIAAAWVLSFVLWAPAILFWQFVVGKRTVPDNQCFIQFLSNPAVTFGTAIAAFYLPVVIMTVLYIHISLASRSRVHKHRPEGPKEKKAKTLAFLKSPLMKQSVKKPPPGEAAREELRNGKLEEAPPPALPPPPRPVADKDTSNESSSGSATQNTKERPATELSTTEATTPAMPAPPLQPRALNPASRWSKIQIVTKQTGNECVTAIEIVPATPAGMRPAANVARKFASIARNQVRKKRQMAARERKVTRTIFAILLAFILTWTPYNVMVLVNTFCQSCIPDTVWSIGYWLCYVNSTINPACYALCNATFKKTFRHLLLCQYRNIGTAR
In words: M4 multiparametric FLIPR calcium assay, agonist mode. The note with it: compound tested at 3 µM, versus DMSO.

The target in assay [2] is T1, human M4 (hM4). The experiment in a line: M4 multiparametric FLIPR calcium assay, PAM mode. The note with it: compound tested at 3 µM, versus EC20 acetylcholine.
In assay [3] the target is T1, human M4 (hM4). In words: M4 multiparametric FLIPR calcium assay, antagonist mode. The note with it: compound tested at 3 µM, versus EC80 acetylcholine.

With `C/C=C(/C)C(=O)O[C@H]1C(C)=C2[C@H]([C@@H]1OC(=O)CCCCCCC)[C@@](C)(OC(C)=O)C[C@H](OC(=O)CCC)[C@@]1(O)[C@H]2OC(=O)[C@@]1(C)O` [thapsigargin], the “response in agonist mode (kinetic trace)” value at human M4 (hM4) [1] is reported as “hit in all modes”. Besides, at human M4 (hM4) [2], the “response in PAM mode (kinetic trace)” value was “hit in all modes”. The “response in antagonist mode (kinetic trace)” value at human M4 (hM4) [3] was “hit in all modes”.
For `COc1ccc(CNC(=O)c2sc3nc(C)cc(C)c3c2N)cc1` [ML108], the “response in agonist mode (kinetic trace)” value at human M4 (hM4) [1] is reported as “active; also recorded: yielded responses in the agonist mode”. In addition, the “response in PAM mode (kinetic trace)” value on human M4 (hM4) [2] is reported as “classified as PAMs”.
